Assay results taken from patent publication US12552783B2, “Modulators of proteolysis and associated methods of use” (Arvinas Operations, Inc., priority 2018, dated 2026).

Target: KRas (Homo sapiens, UniProt P01116, G12C)
Assay: KRas degradation in SW1573 cells by Western blot, normalized to GAPDH (data of Table 14)
Format: cell-based
Settings: SW1573 cells
Description: Cell Lines, Antibodies, and Reagents. NCI-H2030 (CRL-5914) and SW1573 (CRL-2170) cells were purchased from ATCC. Both cell lines are homozygous for the G12C mutation in KRas. NCI-H2030 cells were cultured in RPMI-1640 medium containing 1% penicillin-streptomycin and 10% fetal bovine serum (FBS). SW1573 cells were cultured in DMEM containing 1% penicillin-streptomycin and 10% FBS. The KRas detection antibody (Cat. No. LS-C175665) was purchased from LifeSpan Biosciences and was used at a dilution of 1:2000. GAPDH was detected using an antibody purchased from Cell Signaling Technology (Cat. No. 5174) and was diluted 1:3000. Secondary anti-mouse and anti-rabbit detection antibodies were purchased from Cell Signaling Technology (Cat. Nos. 7076 and 7074, respectively).
Compound Treatment and Western Blotting of the Data of Table 14. Either NCI-H2030 or SW1573 cells were plated in 12-well plates and allowed to adhere overnight at 37° C. in an incubator containing 5% CO2. The following day, the medium was replaced with the appropriate medium lacking FBS to induce starvation. Cells were returned to the incubator for an additional 24 hours following media exchange. […] Cells were treated with VHL-based compounds for 24 hours and all other compounds for 72 hours. Following treatment, cells were lysed in RIPA buffer (Thermo Fisher Cat. No. 89900) containing phosphatase (Thermo Fisher Cat. No. 1861277) and protease (Thermo Fisher Cat. No. 78429) inhibitor cocktails. Lysates were cleared at 13,000 rpm for 15 minutes and supernatants were assayed for total protein concentration using the Pierce BCA assay system (Thermo Fisher Cat. No. 23225). For each sample, 10 μg total protein was resolved on a 12% Bis-Tris gel and then transferred to a nitrocellulose membrane. After blocking in 3% BSA in TBST (Tris-buffered Saline with 0.1% Tween-20) for 1 hour at room temperature, membranes were probed with the primary antibody (LS Bio Cat. No. LS-C175665) overnight at 4° C. After incubation with the secondary antibody, the following day membranes were visualized using the SuperSignal™ West Femto substrate (Thermo Fisher Cat. No. 34095). The KRas signal in each lane was normalized to GAPDH and percent degradation was either estimated as less than 25% by visual inspection (C in Table 13) or quantitated relative to the DMSO control lane using BIO-RAD Image Lab 5.2.1, and all data was plotted using GraphPad PRISM 6.07.
DC50 is the half-maximal degradation concentration—i.e., the concentration at which 50% degradation is observed. DMax is the maximum degradation efficacy is achieved—i.e., the maximal degradation observed) degradation data.

Structure (SMILES)	Percent Degradation at Indicated Concentration (μM) (0.3 μM)	Percent Degradation at Indicated Concentration (μM) (1 μM)	Percent Degradation at Indicated Concentration (μM) (3 μM)	DC50	Dmax	Percent Degradation at Indicated Concentration (μM) (0.01 μM)	Percent Degradation at Indicated Concentration (μM) (0.03 μM)	Percent Degradation at Indicated Concentration (μM) (0.1 μM)
Cc1ncsc1-c1ccc([C@H](C)NC(=O)[C@@H]2C[C@@H](O)CN2C(=O)[C@@H](NC(=O)COCCOCCOCCOC2CCN(C[C@@H](C)Oc3nc(N4CCN(C(=O)C(O)O)CC4)c4cc(Cl)c(-c5cc(O)cc6ccccc56)c(F)c4n3)CC2)C(C)(C)C)cc1 [compound 246, (2S,4R)-1-((2S)-2-(tert-butyl)-14-((1-((2R)-2-((6-chloro-4-(4-(2,2-dihydroxyacetyl)piperazin-1-yl)-8-fluoro-7-(3-hydroxynaphthalen-1-yl)quinazolin-2-yl)oxy)propyl)piperidin-4-yl)oxy)-4-oxo-6,9,12-trioxa-3-azatetradecanoyl)-4-hydroxy-N-((S)-1-(4-(4-methylthiazol-5-yl)phenyl)ethyl)pyrrolidine-2-carboxamide]	C (Percent Degradation: C ≤ 35)	C (Percent Degradation: C ≤ 35)	C (Percent Degradation: C ≤ 35)	–	–	–	–	–
Cc1ncsc1-c1ccc([C@H](C)NC(=O)[C@@H]2C[C@@H](O)CN2C(=O)[C@@H](NC(=O)COCCOCCOCCOCCOC2CCN(C[C@@H](C)Oc3nc(N4CCN(C(=O)C(O)O)CC4)c4cc(Cl)c(-c5cc(O)cc6ccccc56)c(F)c4n3)CC2)C(C)(C)C)cc1 [compound 247, (2S,4R)-1-((2S)-2-(tert-butyl)-17-((1-((2R)-2-((6-chloro-4-(4-(2,2-dihydroxyacetyl)piperazin-1-yl)-8-fluoro-7-(3-hydroxynaphthalen-1-yl)quinazolin-2-yl)oxy)propyl)piperidin-4-yl)oxy)-4-oxo-6,9,12,15-tetraoxa-3-azaheptadecanoyl)-4-hydroxy-N-((S)-1-(4-(4-methylthiazol-5-yl)phenyl)ethyl)pyrrolidine-2-carboxamide]	C (Percent Degradation: C ≤ 35)	C (Percent Degradation: C ≤ 35)	C (Percent Degradation: C ≤ 35)	–	–	–	–	–
Cc1ncsc1-c1ccc([C@H](C)NC(=O)[C@@H]2C[C@@H](O)CN2C(=O)[C@@H](NC(=O)COCCOCCOCCOCCOCCOC2CCN(C[C@@H](C)Oc3nc(N4CCN(C(=O)C(O)O)CC4)c4cc(Cl)c(-c5cc(O)cc6ccccc56)c(F)c4n3)CC2)C(C)(C)C)cc1 [compound 248, (2S,4R)-1-((2S)-2-(tert-butyl)-20-((1-((2R)-2-((6-chloro-4-(4-(2,2-dihydroxyacetyl)piperazin-1-yl)-8-fluoro-7-(3-hydroxynaphthalen-1-yl)quinazolin-2-yl)oxy)propyl)piperidin-4-yl)oxy)-4-oxo-6,9,12,15,18-pentaoxa-3-azaicosanoyl)-4-hydroxy-N-((S)-1-(4-(4-methylthiazol-5-yl)phenyl)ethyl)pyrrolidine-2-carboxamide]	C (Percent Degradation: C ≤ 35)	C (Percent Degradation: C ≤ 35)	C (Percent Degradation: C ≤ 35)	–	–	–	–	–
C=CC(=O)N1CCN(c2nc(O[C@H](C)CN(C)CCOCCOCCOCCOCC(=O)N[C@H](C(=O)N3C[C@H](O)C[C@H]3C(=O)N[C@@H](C)c3ccc(-c4scnc4C)cc3)C(C)(C)C)nc3c(F)c(-c4cc(O)cc5ccccc45)c(Cl)cc23)CC1 [compound 397, (2S,4R)-1-((2S,20R)-20-((4-(4-acryloylpiperazin-1-yl)-6-chloro-8-fluoro-7-(3-hydroxynaphthalen-1-yl)quinazolin-2-yl)oxy)-2-(tert-butyl)-18-methyl-4-oxo-6,9,12,15-tetraoxa-3,18-diazahenicosanoyl)-4-hydroxy-N-((S)-1-(4-(4-methylthiazol-5-yl)phenyl)ethyl)pyrrolidine-2-carboxamide]	C (Percent Degradation: C ≤ 35)	C (Percent Degradation: C ≤ 35)	–	100 to 1000 nM	≤ 35%	C (Percent Degradation: C ≤ 35)	C (Percent Degradation: C ≤ 35)	C (Percent Degradation: C ≤ 35)
C=CC(=O)N1CCN(c2nc(O[C@H](C)CN3CCC(CN4CCN(CC(=O)N[C@H](C(=O)N5C[C@H](O)C[C@H]5C(=O)N[C@@H](C)c5ccc(-c6scnc6C)cc5)C(C)(C)C)CC4)CC3)nc3c(F)c(-c4cc(O)cc5ccccc45)c(Cl)cc23)CC1 [compound 403, (2S,4R)-1-((2S)-2-(2-(4-((1-((2R)-2-((4-(4-acryloylpiperazin-1-yl)-6-chloro-8-fluoro-7-(3-hydroxynaphthalen-1-yl)quinazolin-2-yl)oxy)propyl)piperidin-4-yl)methyl)piperazin-1-yl)acetamido)-3,3-dimethylbutanoyl)-4-hydroxy-N-((S)-1-(4-(4-methylthiazol-5-yl)phenyl)ethyl)pyrrolidine-2-carboxamide]	B (35 < B < 70)	C (Percent Degradation: C ≤ 35)	–	< 100 nM	35 to 70%	C (Percent Degradation: C ≤ 35)	B (35 < B < 70)	B (35 < B < 70)
C=CC(=O)N1CCN(c2nc(O[C@H](C)CN3CCN(CC4CCN(CC(=O)N[C@H](C(=O)N5C[C@H](O)C[C@H]5C(=O)N[C@@H](C)c5ccc(-c6scnc6C)cc5)C(C)(C)C)CC4)CC3)nc3c(F)c(-c4cc(O)cc5ccccc45)c(Cl)cc23)CC1 [compound 404, (2S,4R)-1-((2S)-2-(2-(4-((4-((2R)-2-((4-(4-acryloylpiperazin-1-yl)-6-chloro-8-fluoro-7-(3-hydroxynaphthalen-1-yl)quinazolin-2-yl)oxy)propyl)piperazin-1-yl)methyl)piperidin-1-yl)acetamido)-3,3-dimethylbutanoyl)-4-hydroxy-N-((S)-1-(4-(4-methylthiazol-5-yl)phenyl)ethyl)pyrrolidine-2-carboxamide]	A (A > 70)	A (A > 70)	–	–	–	–	–	B (35 < B < 70)
C=CC(=O)N1CCN(c2nc(O[C@H](C)CN3CCC(OCCOCCOCC(=O)N[C@H](C(=O)N4C[C@@H](O)C[C@H]4C(=O)N[C@@H](C)c4ccc(-c5scnc5C)cc4)C(C)(C)C)CC3)nc3c(F)c(-c4cc(O)cc5ccccc45)c(Cl)cc23)CC1 [compound 405, (2S,4S)-1-((2S)-2-(2-(2-(2-((1-((2R)-2-((4-(4-acryloylpiperazin-1-yl)-6-chloro-8-fluoro-7-(3-hydroxynaphthalen-1-yl)quinazolin-2-yl)oxy)propyl)piperidin-4-yl)oxy)ethoxy)ethoxy)acetamido)-3,3-dimethylbutanoyl)-4-hydroxy-N-((S)-1-(4-(4-methylthiazol-5-yl)phenyl)ethyl)pyrrolidine-2-carboxamide]	C (Percent Degradation: C ≤ 35)	C (Percent Degradation: C ≤ 35)	–	–	–	–	–	C (Percent Degradation: C ≤ 35)
C=CC(=O)N1CCN(c2nc(O[C@H](C)CN3CCC(OCCOCCOCCOCCOCC(=O)N[C@H](C(=O)N4C[C@H](O)C[C@H]4C(=O)N[C@@H](C)c4ccc(-c5scnc5C)cc4)C(C)(C)C)CC3)nc3c2CCN(c2cc(O)cc4ccccc24)C3)CC1 [compound 409]	C (Percent Degradation: C ≤ 35)	C (Percent Degradation: C ≤ 35)	–	–	–	–	–	C (Percent Degradation: C ≤ 35)
